Here are results for 32 compounds from patent publication US8569509B2, “Thiazole-4-carboxylic acid esters and thioesters as plant protection agents” (priority 2008, dated 2013).

One series can be described thus: log P determination (HPLC, calibration with unbranched alkan-2-ones). The format is physicochemical. As to conditions: * LC-MS determination in the acidic range at pH 2.7, 0.1% aqueous formic acid and acetonitrile, linear gradient 10% to 95% acetonitrile. Here is the method: The calibration is carried out using unbranched alkan-2-ones (having 3 to 16 carbon atoms) with known log P values (determination of the log P values by the retention times using linear interpolation between two successive alkanones). The lambda-maX values were determined in the maxima of the chromatographic signals using the UV spectra from 200 nm to 400 nm.
With `Cc1cc(C)n(C(C)(C)C(=O)N2CCC(c3nc(C(=O)OC(C)c4ccc(F)cc4)cs3)CC2)n1` (racemic) [compound 403], the log p is 3.47*. The same measure, in the same setting: for `Cc1c(Cl)c(C(F)(F)F)nn1C(C)C(=O)N1CCC(c2nc(C(=O)OC3CCCCC3)cs2)CC1` (racemic) [compound 769] the value was 4.58*.

The same series, now with this note: * LC-MS determination in the acidic range at pH 2.7, mobile phases 0.1% aqueous formic acid and acetonitrile (0.1% formic acid), linear gradient 10% to 95% acetonitrile; reversed-phase C 18 HPLC.
As for `CC=CC(CC)OC(=O)c1csc(C2CCN(C(=O)C(C)(C)n3nc(C)cc3C)CC2)n1` (mixture of isomers) [compound 799], the log p is 3.78*. Same read-out and setting: for `Cc1c(Cl)c(C(F)(F)F)nn1C(C)C(=O)N1CCC(c2nc(C(=O)Oc3cccc4ccccc34)cs2)CC1` (racemic) [compound 770] the value was 4.50*.

Staying with this series, now noted: pH 2.7; read-out: log P (pH 2.7).
For `O=C(O)c1csc(C2CCN(C(=O)Cn3nc(C(F)F)cc3C(F)F)CC2)n1` [III-1, 2-(1-{[3,5-Bis(difluoromethyl)-1H-pyrazol-1-yl]acetyl}piperidin-4-yl)-1,3-thiazole-4-carboxylic acid], the chromatographic logP is 1.71. As to `O=C(O)c1csc(C2CCN(C(=O)Cn3ccc(C(F)(F)F)n3)CC2)n1` [III-2, 2-(1-{[3-(Trifluoromethyl)-1H-pyrazol-1-yl]acetyl}piperidin-4-yl)-1,3-thiazole-4-carboxylic acid], the chromatographic logP was 1.65. Still for that read-out and setting: for `Cc1cc(C(F)(F)F)nn1CC(=O)N1CCCC(c2nc(C(=O)O)cs2)C1` (centres unmarked) [III-3, 2-(1-{[5-Methyl-3-(trifluoromethyl)-1H-pyrazol-1-yl]acetyl}piperidin-3-yl)-1,3-thiazole-4-carboxylic acid] the value was 1.9; for `Cc1cc(C(F)(F)F)nn1CC(=O)N1CCC(c2nc(C(=O)O)cs2)CC1` [III-4, 2-(1-{[5-Methyl-3-(trifluoromethyl)-1H-pyrazol-1-yl]acetyl}piperidin-4-yl)-1,3-thiazole-4-carboxylic acid], 1.82; for `Cc1c(Cl)c(C(F)(F)F)nn1CC(=O)N1CCC(c2nc(C(=O)O)cs2)CC1` [III-5, 2-(1-{[4-Chloro-5-methyl-3-(trifluoromethyl)-1H-pyrazol-1-yl]acetyl}piperidin-4-yl)-1,3-thiazole-4-carboxylic acid], 2.26. `CCOC(=O)c1csc(C2CCN(C(=O)Cn3nc(C(F)F)cc3C(F)F)CC2)n1` [IV-1, Ethyl 2-(1-{[3,5-bis(difluoromethyl)-1H-pyrazol-1-yl]acetyl}piperidin-4-yl)-1,3-thiazole-4-carboxylate]: the chromatographic logP was 2.52. The same measure, in the same setting: to `CCOC(=O)c1csc(C2CCN(C(=O)Cn3ccc(C(F)(F)F)n3)CC2)n1` [IV-2, Ethyl 2-(1-{[3-(trifluoromethyl)-1H-pyrazol-1-yl]acetyl}piperidin-4-yl)-1,3-thiazole-4-carboxylate] belongs 2.41.

Regarding `CCOC(=O)c1csc(C2CCCN(C(=O)Cn3nc(C(F)(F)F)cc3C)C2)n1` (centres unmarked) [IV-3, Ethyl 2-(1-{[5-methyl-3-(trifluoromethyl)-1H-pyrazol-1-yl]acetyl}piperidin-3-yl)-1,3-thiazole-4-carboxylate], the chromatographic logP was 2.78. On the same count and under the same terms, for `CCOC(=O)c1csc(C2CCN(C(=O)Cn3nc(C(F)(F)F)cc3C)CC2)n1` [IV-5, Ethyl 2-(1-{[5-methyl-3-(trifluoromethyl)-1H-pyrazol-1-yl]acetyl}piperidin-4-yl)-1,3-thiazole-4-carboxylate] the value was 2.62; for `CCOC(=O)c1csc(C2CCN(C(=O)Cn3nc(C(F)(F)F)c(Cl)c3C)CC2)n1` [IV-6, Ethyl 2-(1-{[4-chloro-5-methyl-3-(trifluoromethyl)-1H-pyrazol-1-yl]acetyl}piperidin-4-yl)-1,3-thiazole-4-carboxylate], 3.17. Still for that read-out and setting: for `CC(C)(C)OC(=O)N1CCC(c2nc(C(=O)Oc3cccc4ccccc34)cs2)CC1` [IX-2, tert-Butyl 4-{4-[(1-naphthyloxy)carbonyl]-1,3-thiazol-2-yl}piperidine-1-carboxylate] the value was 4.5. With `CC(C)(C)c1cc(C(F)(F)F)n(CC(=O)O)n1` [V-1, [3-tert-Butyl-5-(trifluoromethyl)-1H-pyrazol-1-yl]acetic acid], the chromatographic logP worked out at 2.45. The same measure, in the same setting: to `CC(C)(C)c1cc(C(F)(F)F)nn1CC(=O)O` [V-2, [5-tert-Butyl-3-(trifluoromethyl)-1H-pyrazol-1-yl]acetic acid] belongs 2.45; to `CC(C)(C)c1cc(C(F)(F)C(F)(F)F)n(CC(=O)O)n1` [V-3, [3-tert-Butyl-5-(pentafluoroethyl)-1H-pyrazol-1-yl]acetic acid], 2.92. Turning to `CC(C)(C)c1cc(C(F)(F)C(F)(F)F)nn1CC(=O)O` [V-4, [5-tert-Butyl-3-(pentafluoroethyl)-1H-pyrazol-1-yl]acetic acid], the chromatographic logP is 2.75. Same read-out and setting: to `CC(C)c1cc(C(F)(F)F)n(CC(=O)O)n1` [V-5, [3-Isopropyl-5-(trifluoromethyl)-1H-pyrazol-1-yl]acetic acid] belongs 2.05; to `CCOC(=O)c1csc(C2CCNCC2)n1` [VI-1, 4-[4-(Ethoxycarbonyl)-1,3-thiazol-2-yl]piperidinium chloride], 0.42; to `CCOC(=O)c1csc(C2CCCNC2)n1` (centres unmarked) [VI-2, 3-[4-(Ethoxycarbonyl)-1,3-thiazol-2-yl]piperidinium chloride], 0.54. Consider `O=C(Oc1cccc2ccccc12)c1csc(C2CCNCC2)n1` [X-2, 4-{4-[(1-Naphthyloxy)carbonyl]-1,3-thiazol-2-yl}piperidinium chloride], for which the chromatographic logP was found to be 1.42.

For `CCOC(=O)Cn1nc(C(C)(C)C)cc1C(F)(F)F` [XVI-1, Ethyl [3-tert-butyl-5-(trifluoromethyl)-1H-pyrazol-1-yl]acetate], the chromatographic logP amounted to 3.89. On the same count and under the same terms, for `CCOC(=O)Cn1nc(C(F)(F)F)cc1C(C)(C)C` [XVI-2, Ethyl [5-tert-butyl-3-(trifluoromethyl)-1H-pyrazol-1-yl]acetate] the value was 3.48; for `CCOC(=O)Cn1nc(C(C)(C)C)cc1C(F)(F)C(F)(F)F` [XVI-3, Ethyl [3-tert-butyl-5-(pentafluoroethyl)-1H-pyrazol-1-yl]acetate], 4.45. The same measure, in the same setting: to `CCOC(=O)Cn1nc(C(F)(F)C(F)(F)F)cc1C(C)(C)C` [XVI-4, Ethyl [5-tert-butyl-3-(pentafluoroethyl)-1H-pyrazol-1-yl]acetate] belongs 4.05; to `CCOC(=O)Cn1nc(C(C)C)cc1C(F)(F)F` [XVI-5, Ethyl [3-isopropyl-5-(trifluoromethyl)-1H-pyrazol-1-yl]acetate], 3.22; to `CCOC(=O)Cn1nc(C(F)(F)F)c(Cl)c1C` [XVI-6, Ethyl [4-chloro-5-methyl-3-(trifluoromethyl)-1H-pyrazol-1-yl]acetate], 3.11. Still for that read-out and setting: for `CC(C)(C)c1cc(C(F)(F)C(F)(F)F)[nH]n1` [XVIII-1, 3-tert-Butyl-5-(pentafluoroethyl)-1H-pyrazole] the value was 3.23.

Still in this series, the particulars now being: pH 7.8; read-out: log P (pH 7.8).
Consider `CCOC(=O)c1csc(C2CCN(C(=O)C(C)(C)n3nc(C)cc3C)CC2)n1` [IV-4, Ethyl 2-{1-[2-(3,5-dimethyl-1H-pyrazol-1-yl)-2-methylpropanoyl]piperidin-4-yl}-1,3-thiazole-4-carboxylate], for which the chromatographic logP came out at 2.34.

Consider `Cc1c(Cl)c(C(F)(F)F)nn1CC(=O)O` [V-6, [4-Chloro-5-methyl-3-(trifluoromethyl)-1H-pyrazol-1-yl]acetic acid], for which the chromatographic logP stood at 0.68.
